Where two headings read alike, the source gives them in different places. A value given as a limit tells only on which side of the number the result lay.

Assay [1] deals with muscarinic acetylcholine receptors. The assay can be described thus: inhibition of specific binding of ^3 H-Oxotremorine-M (^3 H-Oxo). Also on record: species or system rat (male Wistar. The settings on record: ^3 H-Oxotremorine 1.0 nM, rat cortex, 30 min. at 25° C. In a few lines: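 Rat cortex membranes (male Wistar) in 20 mM Hepes pH 7.4 incubated with 1.0 nM ^3H-Oxotremorine-M (final) and test compound for 30 min at 25 °C; arecoline defines non-specific binding. Bound radioactivity by filtration and scintillation counting; IC50 (nM) from a single concentration via Co/Cx mass-action formula, reflecting high- and medium-affinity sites.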

Assay [2] addresses T1, muscarinic receptors (M1 -site, pirenzepine sensitive site) (Rattus norvegicus, UniProt P08482).
T1 construct: from tissue; host or cells: cerebral cortex membranes of male Wistar rats
T1 sequence (P08482 1-460): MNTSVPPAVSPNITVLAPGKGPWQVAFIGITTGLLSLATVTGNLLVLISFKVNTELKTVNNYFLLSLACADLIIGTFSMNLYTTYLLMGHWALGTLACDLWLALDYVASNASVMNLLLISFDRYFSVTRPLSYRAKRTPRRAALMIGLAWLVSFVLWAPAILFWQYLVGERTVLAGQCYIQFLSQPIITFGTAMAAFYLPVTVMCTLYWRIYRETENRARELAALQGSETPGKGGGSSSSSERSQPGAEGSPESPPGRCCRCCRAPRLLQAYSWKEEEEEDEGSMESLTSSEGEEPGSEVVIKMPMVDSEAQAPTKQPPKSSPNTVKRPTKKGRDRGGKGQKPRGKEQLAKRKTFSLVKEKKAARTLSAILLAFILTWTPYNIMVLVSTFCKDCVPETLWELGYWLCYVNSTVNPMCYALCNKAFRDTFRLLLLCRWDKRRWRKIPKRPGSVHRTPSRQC
The assay can be described thus: inhibition of ^3 HPRZ (pirenzepine, [N-methyl-^3 H]) binding to rat cerebral cortex membranes. Also on record: species or system rat (male Wistar. In a few lines:
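Male Wistar rat cortex membranes in 20 mM Hepes pH 7.4 were incubated with 1.0 nM (final) [3H]pirenzepine for 60 min at 20° C; nonspecific binding was defined with 1 μg/mL atropine. Filtration and scintillation counting were used, and IC50 was calculated from a single concentration assuming mass-action kinetics.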

The mark [3] stands for this setting: ^3 HPRZ 1.0 nM, rat cortex, 60 min. at 20° C., read-out: ^3 HPRZ IC50 (head from b208 on: Pir IC-50).

Regarding `Clc1ccc(OCCOc2nsnc2OC2CN3CCC2CC3)cc1` (racemic) [Compound 118, (±)-3-(2-[4-Chlorophenoxy]ethoxy)-4-(1-azabicyclo[2.2.2]octyl-3-oxy)-1,2,5-thiadiazole], the IC50 worked out at 7.2 nM in assay [1] and 70 nM in assay [2].

With `COc1ccc(CCCOc2nsnc2OC2CN3CCC2CC3)cn1` (racemic) [Compound 119, (±)-3-(3-[2-Methoxy-5-pyridyl]propyloxy)-4-(1-azabicyclo[2.2.2]octyl-3-oxy)-1,2,5-thiadiazole], the IC50 in assay [1] stood at 17 nM; in assay [2] (setting [3]), 124 nM.

With `Fc1ccc(OCCOc2nsnc2OC2CN3CCC2CC3)cc1` (racemic) [Compound 121, (±)-3-(2-[4-Fluorophenoxy]ethoxy)-4-(1-azabicyclo[2.2.2]octyl-3-oxy)-1,2,5-thiadiazole], the half-inhibitory concentration (IC50) in assay [1] turned out to be 12 nM; in assay [2] (setting [3]), 146 nM.

`C=CCCCOc1nsnc1OC1CN2CCC1CC2` (racemic) [Compound 122, (±)-3-(4-pentenyloxy)-4-(1-azabicyclo[2.2.2]octyl-3-oxy)-1,2,5-thiadiazole]: the IC50 in assay [1] worked out at 11 nM; in assay [2] it was 45 nM.

In the case of `FCCCOc1nsnc1OC1CN2CCC1CC2` (racemic) [Compound 123, (±)-3-(3-Fluoropropyloxy)-4-(1-azabicyclo[2.2.2]octyl-3-oxy)-1,2,5-thiadiazole], the IC50 in assay [1] was found to be 42 nM; in assay [2] (setting [3]), 106 nM.

Take `C1CC(COc2nsnc2OC2CN3CCC2CC3)C1` (racemic) [Compound 124, (±)-3-(Cyclobutylmethoxy)-4-(1-azabicyclo[2.2.2]octyl-3-oxy)-1,2,5-thiadiazole]: the 50% inhibitory concentration (IC50) was 5.8 nM in assay [1] and 54 nM in assay [2].

For `FC(F)(F)C(F)(F)COc1nsnc1OC1CN2CCC1CC2` (racemic) [Compound 125, (±)-3-(3,3,3,2,2-Pentafluoropropyloxy)-4-(1-azabicyclo[2.2.2]octyl-3-oxy)-1,2,5-thiadiazole], the IC50 in assay [1] stood at 36 nM; in assay [2] (setting [3]), 191 nM.

Take `c1ccc(SCCOc2nsnc2OC2CN3CCC2CC3)cc1` (racemic) [Compound 126, (±)-3-(2-[Phenylthio]ethoxy)-4-(1-azabicyclo[2.2.2]octyl-3-oxy)-1,2,5-thiadiazole]: the figures for the IC50 in assay [1] and in assay [2] were 19 nM and 72 nM, respectively.

For the compound `c1ccc2c(OCCOc3nsnc3OC3CN4CCC3CC4)cccc2c1` (racemic) [Compound 127, (±)-3-(2-[1-Napthyloxy]ethoxy)-4-(1-azabicyclo [2.2.2]octyl-3-oxy)-1,2,5-thiadiazole], the IC50 in assay [1] was 61 nM; in assay [2] (setting [3]), 373 nM.

On to `Brc1ccc(OCCOc2nsnc2OC2CN3CCC2CC3)cc1` (racemic) [Compound 128, (±)-3-(2-[4-Bromophenoxy]ethoxy)-4-(1-azabicyclo[2.2.2]octyl-3-oxy)-1,2,5-thiadiazole], for which the IC50 in assay [1] worked out at 6.9 nM; in assay [2] (setting [3]), 109 nM.

Turning to `c1nsnc1OCCOc1nsnc1OC1CN2CCC1CC2` (racemic) [Compound 132, (±)-3-(2-[3-{1,2,5-Thiadiazoyloxy}]ethoxy)-4-(1-azabicyclo[2.2.2]octyl-3-oxy)-1,2,5-thiadiazole], the IC50 in assay [1] is 11 nM; in assay [2] it was 66 nM.

For the compound `CCCCOc1nsnc1OC1CCCNC1` (racemic) [Compound 134, (±)-3-Butyloxy-4-(3-piperidinyloxy)-1,2,5-thiadiazole], the IC50 in assay [1] was 55 nM; in assay [2] (setting [3]), 227 nM.

As for `CCCCSc1nsnc1O[C@@H]1CCC[C@H]1N(C)C` (racemic) [Compound 143, (±)-trans-3-Butylthio-4-(2-dimethylaminocyclopentyloxy)-1,2,5-thiadiazole], the IC50 in assay [1] worked out at 1400 nM; in assay [2] (setting [3]), 637 nM.

With `c1ccc(CCCCSc2nsnc2OC2CN3CCC2CC3)cc1` (racemic) [Compound 148, (±)-3-(4-Phenylbutylthio)-4-(1-azabicyclo[2.2.2]octyl-3-oxy)-1,2,5-thiadiazole], the IC50 in assay [1] was 8 nM; in assay [2] it was 25 nM.

As for `C(=Cc1ccccc1)CSc1nsnc1OC1CN2CCC1CC2` (racemic) [Compound 149, (±)-3-(3-Phenyl-2-propenylthio)-4-(1-azabicyclo[2.2.2]octyl-3-oxy)-1,2,5-thiadiazole], the values for the half-inhibitory concentration (IC50) in assay [1] and in assay [2] were 14 nM and 30 nM, respectively.

On to `O=C(CCSc1nsnc1OC1CN2CCC1CC2)c1ccc(F)cc1` (racemic) [Compound 150, (±)-3-(3-[4-Fluorophenyl]propan-3-onethio)-4-(1-azabicyclo[2,2.2]octyl-3-oxy)-1,2,5-thiadiazole], for which the IC50 in assay [1] is 17 nM; in assay [2], 36 nM.

For the compound `c1ccc2c(c1)Sc1ccccc1N2CCCSc1nsnc1OC1CN2CCC1CC2` (racemic) [Compound 151, (±)-3-(3-[N-phenothiazinyl]propylthio)-4-(1-azabicyclo[2.2.2]octyl-3-oxy)-1,2,5-thiadiazole], the results for the IC50 in assay [1] and in assay [2] (setting [3]) were 2070 nM and 2700 nM, respectively.

Regarding `Fc1ccc(OC(CCSc2nsnc2OC2CN3CCC2CC3)c2ccc(F)cc2)cc1` (racemic) [Compound 152, (±)-3-(3-[4-fluorophenyl]-3-[4-fluorophenoxy]propylthio)-4-(1-azabicyclo[2.2.2]octyl-3-oxy)-1,2,5-thiadiazole], the IC50 is 436 nM in assay [1] and 243 nM in assay [2] (setting [3]).

In the case of `FC(F)(F)c1ccc(OC(CCSc2nsnc2OC2CN3CCC2CC3)c2ccccc2)cc1` (racemic) [Compound 153, (±)-3-(3-Phenyl-3-[4-trifluoromethylphenoxy]propylthio)-4-(1-azabicyclo[2.2.2]octyl-3-oxy)-1,2,5-thiadiazole], the results for the IC50 in assay [1] and in assay [2] (setting [3]) were 597 nM and 205 nM, respectively.

Take `FC(F)(F)CCCSc1nsnc1OC1CN2CCC1CC2` (racemic) [Compound 154, (±)-3-(4,4,4-trifluorobutylthio)-4-(1-azabicyclo[2.2.2]octyl-3-oxy)-1,2,5-thiadiazole]: the IC50 came to 11 nM in assay [1] and 6.3 nM in assay [2].

As to `c1cncc(CCCSc2nsnc2OC2CN3CCC2CC3)c1` (racemic) [Compound 155, (±)-3-(3-[3-pyridyl]propylthio)-4-(1-azabicyclo[2.2.2]octyl-3-oxy)-1,2,5-thiadiazole], the IC50 in assay [1] came out at 3.4 nM; in assay [2], 8.8 nM.

For the compound `Fc1ccc(OCCSc2nsnc2OC2CN3CCC2CC3)cc1` (racemic) [Compound 207, (±)-3-(2-[4-fluorophenoxy]ethylthio)-4-(1-azabicyclo[2.2.2]octyl-3-oxy)-1,2,5-thiadiazole], the IC50 in assay [1] was determined as 2.4 nM; in assay [2], 6 nM.

In the case of `CCCCCSc1nsnc1O[C@H]1CN2CCC[C@H]1C2` (relative stereo) [Compound 23, (±)-exo-3-Pentylthio-4-(1-azabicyclo[3.2.1]octyl-6-oxy)-1,2,5-thiadiazole], the values for the IC50 in assay [1] and in assay [2] (setting [3]) were 55 nM and 18 nM, respectively.

As for `CCCCCSc1nsnc1O[C@@H]1CN2CCC[C@H]1C2` (relative stereo) [Compound 24, (±)-Endo-3-pentylthio-4-(1-azabicyclo[3.2.1]-octyl-6-oxy)-1,2,5-thiadiazole], the IC50 in assay [1] and in assay [2] (setting [3]) was 19 nM each time.

Turning to `CCCCOc1nsnc1O[C@@H]1CN2CC[C@H]1C2` (relative stereo) [Compound 25, (±)-endo-3-Butyloxy-4-(1-azabicyclo[2.2.1]heptyl-3-oxy)-1,2,5-thiadiazol], the figures for the IC50 in assay [1] and in assay [2] were 1.8 nM and 2.1 nM, respectively.

Take `CCCCOc1nsnc1O[C@H]1CN2CC[C@H]1C2` (relative stereo) [Compound 26, (±)-Exo-3-butyloxy-4-(1-azabicyclo[2.2.1]heptyl-3-oxy)-1,2,5-thiadiazole]: the figures for the IC50 in assay [1] and in assay [2] were 11 nM and 37 nM, respectively.

Turning to `CCCCOc1nsnc1O[C@@H]1C[C@H]2CC(=O)C[C@@H]1N2C` (relative stereo) [Compound 46, (±)-exo-3-Butyloxy-4-(6-(N-methyl-8-azabicyclo[3.2.1]octan-3-onoxy))-1,2,5-thiadiazole], the IC50 in assay [1] and in assay [2] (setting [3]) was greater than 1000 nM in each case.

As to `Clc1nsnc1O[C@@H]1CN2CCC[C@@H]1C2` (relative stereo) [Compound 47, (±)-exo-3-Chloro-4-(1-azabicyclo[3.2.1]octyl-6-oxy)-1,2,5thiadiazole], the values for the IC50 in assay [1] and in assay [2] were 54 nM and 23 nM, respectively.

For the compound `Clc1nsnc1O[C@H]1CN2CCC[C@@H]1C2` (relative stereo) [Compound 48, (±)-endo-3-Chloro-4-(1-azabicyclo [3.2.1]octyl-6-oxy)-1,2,5-thiadiazole], the IC50 in assay [1] stood at 14 nM; in assay [2], 27 nM.

By IC50 is commonly meant the midpoint of a concentration-inhibition curve.

The values are drawn from US5665745A, “Heterocyclic compounds and their preparation and use” (Eli Lilly and Company, priority 1995, dated 1997).
